From ChEMBL document CHEMBL6074704, “The Antiepileptic Drug Levetiracetam Inhibits Carbonic Anhydrase: In Vitro and In Silico Studies on Catalytically Active Human Isoforms” (ACS Med Chem Lett, 2024) come the findings set out here.

Some targets named below: Carbonic anhydrase 9 (Homo sapiens, UniProt Q16790); Carbonic anhydrase 3 (Homo sapiens, UniProt P07451); Carbonic anhydrase 7 (Homo sapiens, UniProt P43166); Carbonic anhydrase 12 (Homo sapiens, UniProt O43570).
Another assay concerns the target Carbonic anhydrase 1 (Homo sapiens, UniProt P00915). As to the kind of experiment: Inhibition of human CA1 preincubated for 15 mins by phenol red staining based stopped flow CO2 hydrase assay.
The target in another assay is Carbonic anhydrase 2 (Homo sapiens, UniProt P00918). Nature of the assay: Inhibition of human CA2 preincubated for 15 mins by phenol red staining based stopped flow CO2 hydrase assay.
For a further assay, the target named is Carbonic anhydrase 4 (Homo sapiens, UniProt P22748). As to the kind of experiment: Inhibition of human CA4 preincubated for 15 mins by phenol red staining based stopped flow CO2 hydrase assay.
Assay [1] addresses Carbonic anhydrase 5A, mitochondrial (Homo sapiens, UniProt P35218). Nature of the assay: Inhibition of human CA VA preincubated for 15 mins by phenol red staining based stopped flow CO2 hydrase assay.
The target in assay [2] is Carbonic anhydrase 5B, mitochondrial (Homo sapiens, UniProt Q9Y2D0). As to the kind of experiment: Inhibition of human CA VB preincubated for 15 mins by phenol red staining based stopped flow CO2 hydrase assay.
The next assay concerns the target Carbonic anhydrase 6 (Homo sapiens, UniProt P23280). Nature of the assay: Inhibition of human CA6 preincubated for 15 mins by phenol red staining based stopped flow CO2 hydrase assay.
Another assay concerns the target Carbonic anhydrase 13 (Homo sapiens, UniProt Q8N1Q1). As to the kind of experiment: Inhibition of human CA13 preincubated for 15 mins by phenol red staining based stopped flow CO2 hydrase assay.
The next assay has as its target Carbonic anhydrase 14 (Homo sapiens, UniProt Q9ULX7). As to the kind of experiment: Inhibition of human CA14 preincubated for 15 mins by phenol red staining based stopped flow CO2 hydrase assay.

Structures are written as SMILES.

Carbonic anhydrase 5B, mitochondrial, sequence (Q9Y2D0 whole entry): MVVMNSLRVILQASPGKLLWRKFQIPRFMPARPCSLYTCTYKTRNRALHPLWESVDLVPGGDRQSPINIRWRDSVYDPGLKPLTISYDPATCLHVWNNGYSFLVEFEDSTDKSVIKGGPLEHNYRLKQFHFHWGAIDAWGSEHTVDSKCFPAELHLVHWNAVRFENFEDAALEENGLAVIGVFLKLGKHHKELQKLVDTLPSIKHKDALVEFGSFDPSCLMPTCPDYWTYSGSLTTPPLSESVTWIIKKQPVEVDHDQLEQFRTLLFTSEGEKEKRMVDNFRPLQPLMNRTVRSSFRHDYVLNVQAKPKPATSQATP
Carbonic anhydrase 3, sequence (P07451 whole entry): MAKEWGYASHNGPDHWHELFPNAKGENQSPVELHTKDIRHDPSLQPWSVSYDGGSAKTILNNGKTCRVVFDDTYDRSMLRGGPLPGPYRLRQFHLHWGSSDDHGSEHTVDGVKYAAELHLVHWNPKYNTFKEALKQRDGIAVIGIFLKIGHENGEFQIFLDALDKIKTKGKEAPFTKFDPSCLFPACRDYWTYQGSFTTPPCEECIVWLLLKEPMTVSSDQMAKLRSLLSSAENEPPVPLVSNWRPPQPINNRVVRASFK
Carbonic anhydrase 7, sequence (P43166 whole entry): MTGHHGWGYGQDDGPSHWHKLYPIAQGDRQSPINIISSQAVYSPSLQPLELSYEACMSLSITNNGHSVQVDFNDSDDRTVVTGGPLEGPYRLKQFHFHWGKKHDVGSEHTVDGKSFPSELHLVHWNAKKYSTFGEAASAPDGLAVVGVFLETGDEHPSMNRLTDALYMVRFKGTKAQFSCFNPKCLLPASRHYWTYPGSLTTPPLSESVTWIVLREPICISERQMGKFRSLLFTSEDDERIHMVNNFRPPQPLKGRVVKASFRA
Carbonic anhydrase 6, sequence (P23280 whole entry): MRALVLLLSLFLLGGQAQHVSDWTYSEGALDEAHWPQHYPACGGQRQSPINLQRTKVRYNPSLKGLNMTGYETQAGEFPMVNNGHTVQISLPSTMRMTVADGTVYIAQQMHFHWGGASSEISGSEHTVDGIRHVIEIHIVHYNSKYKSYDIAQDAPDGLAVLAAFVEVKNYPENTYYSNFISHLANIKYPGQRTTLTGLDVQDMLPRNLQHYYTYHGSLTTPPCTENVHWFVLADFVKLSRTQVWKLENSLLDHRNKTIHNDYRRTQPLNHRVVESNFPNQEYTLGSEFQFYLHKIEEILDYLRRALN
Carbonic anhydrase 12, sequence (O43570 whole entry): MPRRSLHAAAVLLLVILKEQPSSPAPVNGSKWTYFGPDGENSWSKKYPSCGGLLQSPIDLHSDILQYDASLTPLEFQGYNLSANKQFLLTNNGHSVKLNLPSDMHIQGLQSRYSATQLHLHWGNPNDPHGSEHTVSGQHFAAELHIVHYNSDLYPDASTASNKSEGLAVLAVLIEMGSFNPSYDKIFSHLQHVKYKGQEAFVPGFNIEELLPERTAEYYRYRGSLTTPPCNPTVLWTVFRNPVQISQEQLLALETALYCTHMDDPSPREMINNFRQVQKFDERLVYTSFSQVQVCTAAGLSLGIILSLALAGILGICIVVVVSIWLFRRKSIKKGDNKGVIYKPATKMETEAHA
Carbonic anhydrase 13, sequence (Q8N1Q1 whole entry): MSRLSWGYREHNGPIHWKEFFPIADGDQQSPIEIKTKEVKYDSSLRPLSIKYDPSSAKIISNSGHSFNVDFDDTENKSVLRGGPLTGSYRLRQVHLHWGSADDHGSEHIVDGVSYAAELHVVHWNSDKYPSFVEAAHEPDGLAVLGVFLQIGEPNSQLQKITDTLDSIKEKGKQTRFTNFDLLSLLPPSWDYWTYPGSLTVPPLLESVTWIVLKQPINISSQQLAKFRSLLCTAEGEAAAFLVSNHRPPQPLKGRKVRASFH
Carbonic anhydrase 5A, mitochondrial, sequence (P35218 whole entry): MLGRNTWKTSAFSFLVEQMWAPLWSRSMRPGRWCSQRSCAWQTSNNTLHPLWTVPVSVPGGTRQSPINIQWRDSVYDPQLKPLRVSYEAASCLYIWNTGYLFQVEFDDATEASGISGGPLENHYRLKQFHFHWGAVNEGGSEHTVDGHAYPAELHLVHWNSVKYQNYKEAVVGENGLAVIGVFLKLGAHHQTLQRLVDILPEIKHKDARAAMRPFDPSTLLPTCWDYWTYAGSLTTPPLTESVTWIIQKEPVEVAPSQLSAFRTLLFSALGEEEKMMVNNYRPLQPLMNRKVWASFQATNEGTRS
Carbonic anhydrase 4, sequence (P22748 whole entry): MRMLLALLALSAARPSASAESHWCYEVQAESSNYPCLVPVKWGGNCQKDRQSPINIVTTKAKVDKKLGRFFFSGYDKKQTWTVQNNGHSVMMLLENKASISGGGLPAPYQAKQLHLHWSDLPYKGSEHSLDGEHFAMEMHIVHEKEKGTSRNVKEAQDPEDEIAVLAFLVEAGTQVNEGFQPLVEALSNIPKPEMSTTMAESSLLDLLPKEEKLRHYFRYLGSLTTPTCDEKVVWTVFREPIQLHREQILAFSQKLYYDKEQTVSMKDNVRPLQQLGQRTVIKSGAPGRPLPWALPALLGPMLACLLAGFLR
Carbonic anhydrase 1, sequence (P00915 whole entry): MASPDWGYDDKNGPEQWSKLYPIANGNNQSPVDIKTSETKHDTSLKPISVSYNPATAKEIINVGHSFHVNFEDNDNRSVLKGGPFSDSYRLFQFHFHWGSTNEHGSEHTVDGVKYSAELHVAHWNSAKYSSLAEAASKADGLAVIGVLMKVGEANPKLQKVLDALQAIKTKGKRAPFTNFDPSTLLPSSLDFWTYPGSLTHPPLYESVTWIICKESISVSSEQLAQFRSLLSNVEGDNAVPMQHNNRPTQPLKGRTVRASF
Carbonic anhydrase 14, sequence (Q9ULX7 whole entry): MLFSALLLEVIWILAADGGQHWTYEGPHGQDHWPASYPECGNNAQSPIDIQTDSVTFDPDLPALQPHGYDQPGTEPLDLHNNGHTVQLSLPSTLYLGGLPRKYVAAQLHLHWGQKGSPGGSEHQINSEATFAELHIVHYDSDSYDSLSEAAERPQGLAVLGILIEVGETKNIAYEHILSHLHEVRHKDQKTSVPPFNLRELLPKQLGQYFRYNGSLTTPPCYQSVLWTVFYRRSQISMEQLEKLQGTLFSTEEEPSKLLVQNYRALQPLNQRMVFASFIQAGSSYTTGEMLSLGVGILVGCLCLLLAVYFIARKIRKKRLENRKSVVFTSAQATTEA
Description for Carbonic anhydrase 12: Inhibition of human CA12 preincubated for 15 mins by phenol red staining based stopped flow CO2 hydrase assay
Description for Carbonic anhydrase 3: Inhibition of human CA3 preincubated for 15 mins by phenol red staining based stopped flow CO2 hydrase assay
Description for Carbonic anhydrase 7: Inhibition of human CA7 preincubated for 15 mins by phenol red staining based stopped flow CO2 hydrase assay

In general, Ki refers to a dissociation constant, usually derived from enzyme kinetics or from competition with a known ligand. Low values mean higher affinity, high ones lower affinity. `CC[C@@H](C(N)=O)N1CCCC1=O`: the Ki at Carbonic anhydrase 1 worked out at 7.95 µM; at Carbonic anhydrase 2, 3.92 µM; on Carbonic anhydrase 4 it was 5.3 µM; in [1], 9.2 µM; in [2], 3.86 µM; at Carbonic anhydrase 6, 8.4 µM. In addition, the Ki was determined as 0.089 µM at Carbonic anhydrase 9; 4.17 µM at Carbonic anhydrase 13; 2.27 µM on Carbonic anhydrase 14; 2.44 µM at Carbonic anhydrase 3; 7.55 µM at Carbonic anhydrase 7; 0.054 µM at Carbonic anhydrase 12.
